PubChem BioAssay (NCI)
Values joined by “and” are separate entries in the source; they are usually repeats but may differ in a detail not shown here. Equal values may be shown once.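 Step 1: Grow cells in 96-well plates. Step 2: Expose to compound for 48 hours at 5 concentrations. Step 3: Interpolate endpoints linearly; if unreached, use highest concentration. GI50 = concentration required for 50% inhibition of growth. TGI marks complete inhibition of growth.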

Columns and labels:
Test in all cases: growth of human tumour cells (NCI), 48 h
ACHN renal = system: ACHN renal
CCRF-CEM leukemia = system: CCRF-CEM leukemia
KM12 colon = system: KM12 colon
M14 melanoma = system: M14 melanoma
MCF7 breast = system: MCF7 breast
NCI-H522 lung = system: NCI-H522 lung
OVCAR-4 ovarian = system: OVCAR-4 ovarian
SF-539 CNS = system: SF-539 CNS
SNB-19 CNS = system: SNB-19 CNS
SNB-75 CNS = system: SNB-75 CNS

Row | Compound | GI50 (ACHN renal) | TGI (ACHN renal) | GI50 (CCRF-CEM leukemia) | TGI (CCRF-CEM leukemia) | GI50 (KM12 colon) | TGI (KM12 colon) | GI50 (M14 melanoma) | TGI (M14 melanoma) | GI50 (MCF7 breast) | TGI (MCF7 breast) | GI50 (NCI-H522 lung) | TGI (NCI-H522 lung) | GI50 (OVCAR-4 ovarian) | TGI (OVCAR-4 ovarian) | GI50 (SF-539 CNS) | TGI (SF-539 CNS) | GI50 (SNB-19 CNS) | TGI (SNB-19 CNS) | GI50 (SNB-75 CNS) | TGI (SNB-75 CNS)
1 | Cc1ccc(Nc2cc(C)nc(NCCCNc3ccnc4cc(Cl)ccc34)n2)cc1 | 1.54 µM | 2.91 µM | 0.945 µM | 3.79 µM | 1.69 µM | 3.26 µM | 1.56 µM | 3.33 µM | 1.16 µM | 2.72 µM | 1.77 µM | 3.37 µM | 1.24 µM | 2.82 µM | 1.59 µM | 3.05 µM | 1.75 µM | 3.84 µM | 1.3 µM | 2.56 µM
2 | Nc1nccc2c1ncn2C1OC(CO)C(O)C1O (stereo not given) | > 100 µM | > 100 µM | > 100 µM | > 100 µM | 54.5 µM | > 100 µM | > 100 µM | > 100 µM | 52 µM | > 100 µM | > 100 µM | > 100 µM | > 100 µM | > 100 µM | > 100 µM | > 100 µM | > 100 µM | > 100 µM | > 100 µM | > 100 µM
3 | Cc1cc(N(CCCNc2ccnc3cc(Cl)ccc23)Cc2ccc3c(c2)OCO3)nc(N2CCCCC2)n1 | 2.32 µM | 4.84 µM | 2.92 µM | > 100 µM | 2.15 µM | 5.39 µM | 1.77 µM | 3.47 µM | 1.77 µM | 4.84 µM | 1.89 µM | 4.19 µM | 1.93 µM | 6.45 µM | 1.82 µM | 3.36 µM | 3.47 µM | 15.1 µM | 1.47 µM | 3.33 µM
4 | COc1cc2c3c(n(CCCBr)c(=O)c2cc1OC)-c1ccc(F)cc1C3=O | 4.47 µM | 36.3 µM | 1.99 µM | 8.94 µM | 35.3 µM | > 100 µM | 8.92 µM | > 100 µM | 4.1 µM | > 100 µM | 4.9 µM | 36.3 µM | 40 µM | > 100 µM | 3.54 µM | 15.2 µM | 6.34 µM | > 100 µM | 12.9 µM | 28.2 µM
5 | CN1C[C@@H]2Cn3c(c(C4=C(c5cn(C)c6ccccc56)C(=O)NC4=O)c4ccccc43)C[C@H]2C1 | 4.16 µM and 3.51 µM | 12.6 µM and 8.98 µM | 2.13 µM and 5.69 µM | 11.7 µM and 17.6 µM | 4.49 µM and 3.67 µM | 9.19 µM and 7.87 µM | 4.07 µM and 3.96 µM | 8.24 µM and 7.83 µM | 3.6 µM and 3.15 µM | 8.7 µM and 9.66 µM | 4.16 µM and 3.63 µM | 8.15 µM and 7.81 µM | 3.36 µM and 3.48 µM | 9.12 µM and 8.91 µM | 3.97 µM and 3.57 µM | 7.83 µM and 7.12 µM | 6.44 µM and 5.87 µM | 18.4 µM and 16.4 µM | 0.441 µM and 0.259 µM | 3.79 µM and 3.6 µM
6 | NS(=O)(=O)c1ccc(-n2ncc3c(Nc4ccccc4)ncnc32)cc1 | 38.5 µM | > 100 µM | 17.7 µM | 92.5 µM | 9.63 µM | 46.7 µM | 32.8 µM | > 100 µM | 49.2 µM | > 100 µM | 51.1 µM | > 100 µM | 32.1 µM | > 100 µM | 36.2 µM | > 100 µM | > 100 µM | > 100 µM | 33.5 µM | > 100 µM
7 | Cc1cc(C)c(S(=O)(=O)N(CCc2cccc(Br)c2)Cc2ccc(-c3cccc(S(C)(=O)=O)c3)cc2)c(C)c1 | > 100 µM | > 100 µM | > 100 µM | > 100 µM | > 100 µM | > 100 µM | > 100 µM | > 100 µM | > 100 µM | > 100 µM | > 100 µM | > 100 µM | > 100 µM | > 100 µM | > 100 µM | > 100 µM | > 100 µM | > 100 µM | > 100 µM | > 100 µM
